Experimental data reported in patent publication US20100204203A1, “Chemical Compounds 637: Pyridopyrimidinediones as PDE4 Inhibitors” (priority 2007, published 2010).
Where a name gives a salt, the structure may show the parent alone.

These compounds were tested against recombinant Human Phosphodiesterase B2 (PDE4B2) (Homo sapiens, UniProt Q07343) (assay: Human Phosphodiesterase B2 Radiometric Assay (yttrium silicate SPA beads, [3H]cyclic AMP)). Conditions: recombinant human PDE4B2, radiometric SPA assay, 8 nM [3H]cyclic AMP; read-out: PDE4B2 pIC50 (converted).
Format: biochemical
Protocol: Human Phosphodiesterase B2 Radiometric Assay
The assay uses recombinant Human Phosphodiesterase B2 (PDE4B2) produced in house (PrAZL0163), stored at −20° C. This assay is based on the observation that 5′AMP, the product of the reaction catalysed by PDE4, binds preferentially to yttrium silicate SPA beads (Amersham Biosciences, UK) compared to the substrate, cAMP. Compounds at the appropriate concentration were preincubated at 30 C for 30 min with an assay buffer containing 50 mM HEPES (pH 7.5), 8.3 mM MgCl2, 1.7 mM EGTA, 0.01% (w/v) Brij° 35 and 0.1 mg/mL recombinant PDE4B2. The reaction was started by the addition of [3H]cyclic AMP to give a final concentration of 8 nM, and was stopped 20 minutes after the addition of the substrate by the addition of yttrium silicate SPA beads containing 18 mM Zn SO4. Bound [3H]cyclic AMP was measured using a Topcount NXT (Packard Bioscience, UK). pIC50 values (presented in Table 15) were determined using Xlfit3 curve fitting, using model 205.

recombinant Human Phosphodiesterase B2 (PDE4B2), sequence (Q07343 1-564 isoform Q07343-2): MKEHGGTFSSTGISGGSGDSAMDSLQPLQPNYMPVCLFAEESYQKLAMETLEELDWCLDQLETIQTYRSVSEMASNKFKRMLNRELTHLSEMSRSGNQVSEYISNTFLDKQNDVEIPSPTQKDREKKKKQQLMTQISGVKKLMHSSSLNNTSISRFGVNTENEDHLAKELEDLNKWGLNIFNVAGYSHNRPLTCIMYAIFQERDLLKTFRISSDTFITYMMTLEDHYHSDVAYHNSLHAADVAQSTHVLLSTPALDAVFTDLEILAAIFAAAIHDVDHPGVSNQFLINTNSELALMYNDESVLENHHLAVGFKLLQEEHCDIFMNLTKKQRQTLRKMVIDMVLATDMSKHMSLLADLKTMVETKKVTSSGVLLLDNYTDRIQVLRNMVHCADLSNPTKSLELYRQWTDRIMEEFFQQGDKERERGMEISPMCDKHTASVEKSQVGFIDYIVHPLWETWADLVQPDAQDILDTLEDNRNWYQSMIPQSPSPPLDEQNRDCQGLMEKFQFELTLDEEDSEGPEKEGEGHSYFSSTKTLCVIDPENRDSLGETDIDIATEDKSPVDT

SMILES	IC50 [nM]
Cc1cccc2nc(CN[C@H]3CC[C@@H](n4c(=O)c5cc(F)cnc5n(-c5cccc(-c6ccc(O)cc6CN6CCOCC6)c5)c4=O)CC3)cn12 [Example 335, 6-fluoro-1-[4′-hydroxy-2′-(morpholin-4-ylmethyl)biphenyl-3-yl]-3-(cis-4-{[(5-methylimidazo[1,2-c]pyridin-2-yl)methyl]amino}cyclohexyl)pyrido[2,3-d]pyrimidine-2,4(1H,3H)-dione]	0.00794
Cc1cnc(C(=O)N[C@H]2CC[C@@H](n3c(=O)c4cc(F)cnc4n(-c4cccc(-c5ccc(CN6CCN(C7CCCC7)CC6)cc5)c4)c3=O)CC2)cn1 [Example 288, N-{cis-4-[1-{4′-[(4-cyclopentylpiperazin-1-yl)methyl]biphenyl-3-yl}-6-fluoro-2,4-dioxo-1,4-dihydropyrido[2,3-d]pyrimidin-3(2H)-yl]cyclohexyl}-5-methylpyrazine-2-carboxamide]	0.0501
COc1ccc(O)c(CN[C@H]2CC[C@@H](n3c(=O)c4cc(F)cnc4n(-c4cccc(-c5ccc(CN6CCCOCC6)cc5)c4)c3=O)CC2)c1 [Example 267, 6-fluoro-3-{cis-4-[(2-hydroxy-5-methoxybenzyl)amino]cyclohexyl}-1-[4′-(1,4-oxazepan-4-ylmethyl)biphenyl-3-yl]pyrido[2,3-d] pyrimidine-2,4(1H,3H)-dione]	1.58
NCc1ccc(-c2cccc(-n3c(=O)n([C@H]4CC[C@@H](NC(=O)c5cn6cc(F)ccc6n5)CC4)c(=O)c4cc(F)cnc43)c2)cc1 [Example 32, N-{cis-4-[1-[4′-(aminomethyl)biphenyl-3-yl]-6-fluoro-2,4-dioxo-1,4-dihydropyrido[2,3-d]pyrimidin-3(2H)-yl]cyclohexyl}-6-fluoroimidazo[1,2-a]pyridine-2-carboxamide Hydrochloride]	0.158
O=C(N[C@H]1CC[C@@H](n2c(=O)c3cc(F)cnc3n(-c3cccc(-c4ccccn4)c3)c2=O)CC1)c1cn2cc(F)ccc2n1 [Example 55, 6-fluoro-N-{cis-4-[6-fluoro-2,4-dioxo-1-(3-pyridin-2-ylphenyl)-1,4-dihydropyrido[2,3-d]pyrimidin-3(2H)-yl]cyclohexyl}imidazo[1,2-a]pyridine-2-carboxamide]	0.1
CC(C)NCCc1ccc(-c2cccc(-n3c(=O)n([C@H]4CC[C@@H](NC(=O)c5cn6cc(F)ccc6n5)CC4)c(=O)c4cc(F)cnc43)c2)cc1 [Example 98, 6-fluoro-N-{cis-4-[6-fluoro-1-{4′-[2-(isopropylamino)ethyl]biphenyl-3-yl}-2,4-dioxo-1,4-dihydropyrido[2,3-d]pyrimidin-3(2H)-yl]cyclohexyl}imidazo[1,2-a]pyridine-2-carboxamide]	0.126
Cc1n[nH]cc1C(=O)N[C@H]1CC[C@@H](n2c(=O)c3cc(F)cnc3n(-c3cccc(-c4ccc(CN5CCN(C(C)C)CC5)cc4)c3)c2=O)CC1 [Example 235, N-{cis-4-[6-fluoro-1-{4′-[(4-isopropylpiperazin-1-yl)methyl]biphenyl-3-yl}-2,4-dioxo-1,4-di-hydropyrido[2,3-d]pyrimidin-3(2H)-yl]cyclohexyl}-3-methyl-1H-pyrazole-4-carboxamide]	0.126
O=C(N[C@H]1CC[C@@H](n2c(=O)c3cc(F)cnc3n(-c3cccc(-c4ccc(CN5CCCNCC5)cc4)c3)c2=O)CC1)c1cc(=O)c2ccccc2[nH]1 [Example 355, N-{cis-4-[1-[4′-(1,4-diazepan-1-ylmethyl)biphenyl-3-yl]-6-fluoro-2,4-dioxo-1,4-dihydropyrido[2,3-d]pyrimidin-3(2H)-yl]cyclohexyl}-4-oxo-1,4-dihydroquinoline-2-carboxamide]	0.0501
CN(C)CCOc1cc(F)ccc1-c1cccc(-n2c(=O)n([C@H]3CC[C@@H](NC(=O)c4cn5cc(F)ccc5n4)CC3)c(=O)c3cc(F)cnc32)c1 [Example 82, N-{cis-4-[1-{2′-[2-(dimethylamino)ethoxy]-4′-fluorobiphenyl-3-yl}-6-fluoro-2,4-dioxo-1,4-dihydropyrido[2,3-d]pyrimidin-3 (2H)-yl]cyclohexyl}-6-fluoroimidazo[1,2-a]pyridine-2-carboxamide]	0.2
C[C@@H]1CN(Cc2ccc(-c3cccc(-n4c(=O)n([C@H]5CC[C@@H](NC(=O)c6cnc7ccccc7n6)CC5)c(=O)c5cc(F)cnc54)c3)cc2)C[C@H](C)N1 [Example 303, N-{cis-4-[1-(4′-{[(3R,5S)-3,5-dimethylpiperazin-1-yl]methyl}biphenyl-3-yl)-6-fluoro-2,4-dioxo-1,4-dihydropyrido[2,3-d]pyrimidin-3(2H)-yl]cyclohexyl} quinoxaline-2-carboxamide]	0.02
CC(C)CCCC(C)n1c(=O)n([C@H]2CC[C@@H](NC(=O)c3cn4cc(F)ccc4n3)CC2)c(=O)c2cc(F)cnc21 (stereo partly drawn) [Example 36, N-{cis-4-[1-(1,5-dimethylhexyl)-6-fluoro-2,4-dioxo-1,4-dihydropyrido[2,3-d]pyrimidin-3(2H)-yl]cyclohexyl}-6-fluoroimidazo[1,2-a]pyridine-2-carboxamide]	6.31
Cc1cccc2nc(C(=O)N[C@H]3CC[C@@H](n4c(=O)c5cc(F)cnc5n(-c5cccc(-c6ccc(CN7CCCN(C)CC7)cc6)c5)c4=O)CC3)cn12 [Example 220, N-{cis-4-[6-fluoro-1-{4′-[(4-methyl-1,4-diazepan-1-yl)methyl]biphenyl-3-yl}-2,4-dioxo-1,4-dihydropyrido[2,3-d]pyrimidin-3(2H)-yl]cyclohexyl}-5-methylimidazo[1,2-a]pyridine-2-carboxamide]	0.00794
CC(C)(C)OC(=O)NCc1cccc(-c2cccc(-n3c(=O)n([C@H]4CC[C@@H](NC(=O)c5cn6cc(F)ccc6n5)CC4)c(=O)c4cc(F)cnc43)c2)c1 [Example 18, tert-butyl ({3′-[6-fluoro-3-(cis-4-{[(6-fluoroimidazo[1,2-a]pyridin-2-yl)carbonyl]amino}cyclohexyl)-2,4-dioxo-3,4-dihydropyrido[2,3-d]pyrimidin-1(2H)-yl]biphenyl-3-yl}methyl)carbamate.]	0.0631
CN1CCCN(Cc2ccc(-c3cccc(-n4c(=O)n([C@H]5CC[C@@H](NC(=O)c6cnc7ccccc7n6)CC5)c(=O)c5cc(F)cnc54)c3)cc2)CC1 [Example 358, N-{cis-4-[6-fluoro-1-{4′-[(4-methyl-1,4-diazepan-1-yl)methyl]biphenyl-3-yl}-2,4-dioxo-1,4-dihydropyrido[2,3-d]pyrimidin-3(2H)-yl]cyclohexyl} quinoxaline-2-carboxamide]	0.0126
CN(Cc1ccc(-c2cccc(-n3c(=O)n([C@H]4CC[C@@H](NC(=O)C5(N(C)C)CC5)CC4)c(=O)c4cc(F)cnc43)c2)cc1)C(C)(C)C [Example 207, N-{cis-4-[1-(4′-{[tert-butyl(methyl)amino]methyl}biphenyl-3-yl)-6-fluoro-2,4-dioxo-1,4-dihydropyrido[2,3-d]pyrimidin-3(2H)-yl]cyclohexyl}-1-(dimethylamino)cyclopropanecarboxamide]	0.316
CSc1ncc(-c2cccc(-n3c(=O)n([C@H]4CC[C@@H](NC(=O)c5cn6cc(F)ccc6n5)CC4)c(=O)c4cc(F)cnc43)c2)cn1 [Example 30, 6-fluoro-N-{cis-4-[6-fluoro-1-{3-[2-(methylthio)pyrimidin-5-yl]phenyl}-2,4-dioxo-1,4-dihydropyrido[2,3-d]pyrimidin-3(2H)-yl]cyclohexyl}imidazo[1,2-a]pyridine-2-carboxamide.]	0.0158
CC(C)N1CCN(Cc2ccc(-c3cccc(-n4c(=O)n([C@H]5CC[C@@H](NC(=O)C6(N(C)C)CC6)CC5)c(=O)c5cc(F)cnc54)c3)cc2)CC1 [Example 129, 1-(dimethylamino)-N-{cis-4-[6-fluoro-1-{4′-[(4-isopropylpiperazin-1-yl)methyl]biphenyl-3-yl}-2,4-dioxo-1,4-dihydropyrido[2,3-d]pyrimidin-3(2H)-yl]cyclohexyl}cyclopropanecarboxamide]	0.0398
CC(=O)n1cc(CN(Cc2cn(C(C)=O)c3ccccc23)[C@H]2CC[C@@H](n3c(=O)c4cc(F)cnc4n(-c4cccc(-c5ccc(CN6CCN(C(C)C)CC6)cc5)c4)c3=O)CC2)c2ccccc21 [Example 341, 3-(cis-4-{bis[(1-acetyl-1H-indol-3-yl)methyl]amino}cyclohexyl)-6-fluoro-1-{4′-[(4-isopropylpiperazin-1-yl)methyl]biphenyl-3-yl}pyrido[2,3-d]pyrimidine-2,4(1H,3H)-dione]	0.501
CC(C)CCNCc1ccc(-c2cccc(-n3c(=O)n([C@H]4CC[C@@H](NC(=O)c5cn6c(n5)CCCC6)CC4)c(=O)c4cc(F)cnc43)c2)cc1 [Example 122, N-{cis-4-[6-fluoro-1-(4′-{[(3-methylbutyl)amino]methyl}biphenyl-3-yl)-2,4-dioxo-1,4-dihydropyrido[2,3-d]pyrimidin-3(2H)-yl]cyclohexyl}-5,6,7,8-tetrahydroimidazo[1,2-a]pyridine-2-carboxamide]	0.0501
COCCN(C)Cc1cc(O)ccc1-c1cccc(-n2c(=O)n([C@H]3CC[C@@H](NCc4cn5cc(F)ccc5n4)CC3)c(=O)c3cc(F)cnc32)c1 [Example 327, 6-fluoro-3-(cis-4-{[(6-fluoroimidazo[1,2-a]pyridin-2-yl)methyl]amino}cyclohexyl)-1-(4′-hydroxy-2′-{[(2-methoxyethyl)(methyl)amino]methyl}biphenyl-3-yl)pyrido[2,3-d]pyrimidine-2,4(1H,3H)-dione]	0.251
CC(C)(C)OC(=O)N1CCN(Cc2ccc(-c3cccc(-n4c(=O)n([C@H]5CC[C@@H](NC(=O)c6cn7cc(F)ccc7n6)CC5)c(=O)c5cc(F)cnc54)c3)cc2)CC1 [Example 51]	0.0398
